Source: patent publication US6998503B2, “Crystalline solid form of (2S,5Z)-2-amino-7-(ethanimidoylamino)-2-methylhept-5-enoic acid” (Pharmacia Corporation, priority 2002, dated 2006)
Several values for one entry are separate records, joined by “and”; a condition that tells them apart may be missing. Identical values can stand only once. Blank lines part the entries; values can stand above or below the compound they belong to.

How the values were obtained:
Assay type in all cases: physicochemical
[1] = Analysis of amorphous material (hygroscopicity note at elemental analysis); conditions: observed at elemental analysis
[2] = Solubility of the amorphate in solvents
[3] = Moisture sorption by DVS moisture balance; conditions: for Desorption / Sorption (moisture gain) / Hysteresis Cycle 1: 25° C.
Text: The crystalline 2-amino-7-(ethanimidoylamino)-2-methylhept-5-enoic acid 1.5 HCl is nonhygroscopic at and below 70% relative humidity. […] At 80% R.H. the gain was 18.5%, and at 90% R.H. the gain was 76.8%. The instrument cycled back to low relative humidity and the sample was removed then examined by polarized light microscopy. The sample was fully crystalline after removal from the moisture balance, but the crystallite size had increased. […] This salt form, 1.5 HCl has no solvation.

- solubility ([2]; dry solvents: acetone, MEK, methyl isobutyl ketone, THF, ethyl acetate, chloroform, methylene chloride, hexanes, cyclohexane, di-isopropyl ether, acetonitrile, toluene): less than one
- solubility ([2]; in isopropanol and solvents containing water: 10% water in THF, water saturated ethyl acetate, 10% water in acetonitrile, higher alcohols with water): soluble
- solubility ([2]; in water, methanol and ethanol): freely soluble
Compound: CC(=N)NC/C=C\CCC(C)(N)C(=O)O (stereo in doubt) [(2S,5Z)-2-amino-7-(ethanimidoylamino)-2-methylhept-5-enoic acid]
- hygroscopicity [1]: (Note: Material appears to be hygroscopic - elemental

- Desorption ([3]; target RH 0.0%): 13.02%
- Sorption (moisture gain) ([3]; target RH 0.0%): 0.00%
- Sorption (moisture gain) ([3]; target RH 10.0%): 0.10%
- Desorption ([3]; target RH 20.0%): 18.93%
- Hysteresis Cycle 1 ([3]; target RH 20.0%): 18.77%
- Sorption (moisture gain) ([3]; target RH 20.0%): 0.16%
- Sorption (moisture gain) ([3]; target RH 30.0%): 0.21%
- Desorption ([3]; target RH 40.0%): 22.72%
- Hysteresis Cycle 1 ([3]; target RH 40.0%): 22.46%
- Sorption (moisture gain) ([3]; target RH 40.0%): 0.26%
- Sorption (moisture gain) ([3]; target RH 50.0%): 0.28%
- Desorption ([3]; target RH 60.0%): 33.44%
- Hysteresis Cycle 1 ([3]; target RH 60.0%): 33.16%
- Sorption (moisture gain) ([3]; target RH 60.0%): 0.27%
- Sorption (moisture gain) ([3]; target RH 70.0%): 0.91%
- Desorption ([3]; target RH 80.0%): 67.59%
- Hysteresis Cycle 1 ([3]; target RH 80.0%): 49.10%
- Sorption (moisture gain) ([3]; target RH 80.0%, HCl): 18.5% and 18.48%
- Sorption (moisture gain) ([3]; target RH 85.0%): 46.91%
- Desorption ([3]; target RH 90.0%): 76.82%
- Sorption (moisture gain) ([3]; target RH 90.0%, HCl): 76.8% and 76.82%
- hygroscopicity ([3]; at and below 70% relative humidity): nonhygroscopic
Compound: CC(=N)NC/C=C\CC[C@](C)(N)C(=O)O.CC(=N)NC/C=C\CC[C@](C)(N)C(=O)O.Cl.Cl.Cl [(2S,5Z)-2-amino-7-(ethanimidoylamino)-2-methylhept-5-enoic acid 1.5 HCl]
